# Tests used:
# [1] = Example 1A: residual ratio of Compound A1 in buffer solutions stored at 5° C.; assay type: physicochemical; details: for Residual ratio (%): 0.1 mg/mL
# Procedure: Compound A1 was dissolved in each of the buffer solutions so that a concentration was 0.1 mg/mL. Each of these solutions was dispensed into a glass vial and stored at 5° C. After the storage, a residual ratio was calculated according to a test method described below.
# (§1) Test method: In the solution after the storage, the residual ratio was analyzed according to a normal method using a liquid chromatography apparatus Prominence (manufactured by Shimadzu Corporation) and an ultraviolet absorptiometer (measurement wavelength: 254 nm, Prominence (manufactured by Shimadzu Corporation)). At this time, SUMIPAX ODS (3 mm×150 mm, 5 μm, manufactured by SCAS) was used as a column.
# (§2) The residual ratio (%) of Compound A1 during each storage period at 5° C. was calculated as follows.
# (§3) Residual ratio (%) of Compound A1 during each storage period=peak area of Compound A1 in sample solution/sum of peak area of sample solution×100
# [2] = Example 1B: residual ratio of Compound A1 at 2 concentrations stored at 5° C.; assay type: physicochemical
# Procedure: According to Table 3 below, Compound A1 was dissolved in each of the buffer solutions at 2 concentrations. Each of these solutions was dispensed into a glass vial and stored at 5° C. After the storage, a residual ratio of Compound A1 was calculated according to a test method described below.
# as §1, §2, §3
# [3] = system: bilaterally nephrectomized rats; assay: Survival of bilaterally nephrectomized rats after single doses; assay type: in vivo, rat; details: 48 hours after the administration, all administered groups (0.3, 3, 30 mg/kg)
# Excerpt: After quarantine and acclimatization periods of 6 days, fifty-one rats (Crl: CD (SD), male) aged 7 weeks were fed a 100% sucrose diet ad libitum from four days before the surgery. On the day of the surgery, skin incisions were made on the back at the sites of the right and left kidneys under isoflurane anesthesia and the renal capsules were removed to ligate the renal arteries and veins and the ureters using threads before removing the right and left kidneys. A penicillin solution was given upon suturing, and 5 mL of physiological saline was intraperitoneally administered before returning the rats into the breeding cages.
# On a day after the bilaterally nephrectomy, the given doses were calculated based on the weight of the selected animals on that day. Group 1 was given a medium (physiological saline), Groups 2, 3 and 4 were given the Compound A1 solution (0.3, 3 and 30 mg/mL, respectively), and Groups 5, 6, 7 and 8 (5 rats per group) were given the comparative compound (0.3, 1, 3 and 10 mg/mL, respectively), each given a single dose of 1 ml/kg from the tail vein. Prior to the administration (0 hours), and 24 and 48 hours after the administration, approximately 300 μL of blood was collected without anesthesia from the tail vein using capillary tubes for obtaining the serum. The blood for obtaining the serum was left to stand at room temperature, and centrifuged in a high speed refrigerated microcentrifuge (10,000 rpm, 5 min, 4° C.) within a period of 30 minutes to 2 hours after the blood collection to collect the serum.
# [4] = Non-clinical studies of excretion and elimination (normal rat); assay type: in vivo
# male beagles = assay: Emetogenicity of Compound A1 in dogs; assay type: in vivo, dog; details: for Number of vomiting cases/Number of administration: Intravenous
# Procedure: A crossover trial was conducted with male beagles (Nosan Beagle, 14 to 87-month-old, weight: 10.2 kg to 15.8 kg). The Compound A1 solutions used in Reference Example 2 were given at 0.3, 1 and 10 mg/kg by bolus administration (0.5 mL/kg, 1 mL/sec) to 3 to 6 dogs per dose to confirm the manifestation of vomiting immediately after the administration. Administration was conducted once or twice a week with an interval of 2 days or longer. Administration was conducted prior to feeding. Symptoms prior to, immediately after, and 15 and 30 minutes after the administration were observed.
smiles,measurement,setting,value
"Cc1c(Cl)cc(S(=O)(=O)[O-])cc1NC(=O)NC[C@H](N)C(=O)O.[Na+] [Compound A1, sodium 3-{[(2S)-2-amino-2-carboxyethyl]carbamoylamino}-5-chloro-4-methylbenzenesulfonate]",Residual ratio (%),"[1]; pH 1.1, 5° C., 24 hours",100%
same,Residual ratio (%),"[1]; pH 1.1, 5° C., 113 hours",100%
same,Residual ratio (%),"[1]; pH 1.1, 5° C., 161 hours",100%
same,Residual ratio (%),"[1]; pH 2.0, 5° C., 24 hours",100%
same,Residual ratio (%),"[1]; pH 2.0, 5° C., 113 hours",100%
same,Residual ratio (%),"[1]; pH 2.0, 5° C., 161 hours",100%
same,Residual ratio (%),"[1]; pH 3.0, 5° C., 24 hours",100%
same,Residual ratio (%),"[1]; pH 3.0, 5° C., 113 hours",100%
same,Residual ratio (%),"[1]; pH 3.0, 5° C., 161 hours",100%
same,Residual ratio (%),"[1]; pH 4.0, 5° C., 24 hours",100%
same,Residual ratio (%),"[1]; pH 4.0, 5° C., 113 hours",100%
same,Residual ratio (%),"[1]; pH 4.0, 5° C., 161 hours",100%
same,Residual ratio (%),"[1]; pH 5.0, 5° C., 24 hours",100%
same,Residual ratio (%),"[1]; pH 5.0, 5° C., 113 hours",100%
same,Residual ratio (%),"[1]; pH 5.0, 5° C., 161 hours",100%
same,Residual ratio (%),"[1]; pH 6.0, 5° C., 24 hours",100%
same,Residual ratio (%),"[1]; pH 6.0, 5° C., 113 hours",100%
same,Residual ratio (%),"[1]; pH 6.0, 5° C., 161 hours",100%
same,Residual ratio (%),"[1]; pH 7.0, 5° C., 24 hours",100%
same,Residual ratio (%),"[1]; pH 7.0, 5° C., 113 hours",100%
same,Residual ratio (%),"[1]; pH 7.0, 5° C., 161 hours",100%
same,stability of the formulation,"[1]; pH of 1.1 to 7.0, 5° C.",stable
same,Residual ratio (%),"[2]; 0.1 mg/mL, pH 1.1, 5° C., 23 hours",100%
same,Residual ratio (%),"[2]; 0.1 mg/mL, pH 1.1, 5° C., 141 hours",100%
same,Residual ratio (%),"[2]; 0.1 mg/mL, pH 1.1, 5° C., 570 hours",100%
same,Residual ratio (%),"[2]; 0.1 mg/mL, pH 7.0, 5° C., 23 hours",100%
same,Residual ratio (%),"[2]; 0.1 mg/mL, pH 7.0, 5° C., 141 hours",100%
same,Residual ratio (%),"[2]; 0.1 mg/mL, pH 7.0, 5° C., 570 hours",100%
same,Residual ratio (%),"[2]; 10 mg/mL, pH 1.1, 5° C., 23 hours",100%
same,Residual ratio (%),"[2]; 10 mg/mL, pH 1.1, 5° C., 141 hours",100%
same,Residual ratio (%),"[2]; 10 mg/mL, pH 1.1, 5° C., 570 hours",100%
same,Residual ratio (%),"[2]; 10 mg/mL, pH 7.0, 5° C., 23 hours",100%
same,Residual ratio (%),"[2]; 10 mg/mL, pH 7.0, 5° C., 141 hours",100%
same,Residual ratio (%),"[2]; 10 mg/mL, pH 7.0, 5° C., 570 hours",100%
same,stability of the formulation,"[2]; pH of 1.1 and pH of 7.0, 5° C., regardless of the concentration",stable
same,number of rats surviving (of five per group),[3],five
same,elimination from the plasma,[4]; intravenously administered to a normal rat,rapidly eliminated
same,main route of excretion,[4]; non-clinical studies,renal excretion
same,Number of vomiting cases/Number of administration,male beagles; 0.3 mg/kg,0/3
same,Number of vomiting cases/Number of administration,male beagles; 1 mg/kg,0/3
same,Number of vomiting cases/Number of administration,male beagles; 10 mg/kg,1/6
same,therapeutic margin with respect to vomiting (dog C0 vs human C0),male beagles; dog 1 mg/kg vs human 0.1 mg/man,≥ 430 times
